Data: patent US7214495B2, “Screening method” (Takeda Pharmaceutical Company Limited, priority 2002, dated 2007)

Tests used:
[1] = test system: mouse GPR40 mRNA; assay: Mouse GPR40 mRNA expression in MIN6 after siRNA introduction; type: cell-based; conditions: 2 days after introduction; vs random sequence siRNA
Procedure: MIN6 cells were plated in a 24-well plate and incubated for a day. Based on the method of EXAMPLE 18, m40i103 or Scramble II duplex siRNA, which was a random sequence siRNA, was then introduced using HVJ Envelope VECTOR KIT GenomONE. After incubation for 2 days, the total RNA of the same cells was prepared in a manner similar to EXAMPLE 7, using Isogen (Nippon Gene K. K.), following the manual attached. Using as a primer 100 ng of random hexamer based on 1 μg of the resulting total RNA, cDNA was synthesized using SuperScriptII reverse transcriptase (Invitrogen, Inc.), which was lysed in 40 μl of TE buffer (pH 8.0). The expression levels of mouse GPR40 and mouse GAPDH mRNA were determined by the method described in EXAMPLE 4.

[2] = test system: mouse GPR40-GFP fusion protein; assay: Expression of mouse GPR40-GFP fusion protein in CHO cells after siRNA introduction (enzyme immunoassay); type: cell-based; conditions: siRNA 2.86 pmols/0.5 μl or 8.57 pmols/1.5 μl, one day
Procedure: Mouse GPR40-GFP fusion protein-expressed CHO cells prepared by publicly known methods were plated in a 96-well plate at a density of 3×10^4/well, followed by incubation for a day. The siRNA (Dharmacon, Inc.) having various sequences, which was prepared according to the report by Elbasir et al. (Nature 411 (6836), 494–498 (2001)) using HVJ Envelope VECTOR KIT GenomONE™ (Ishihara Sangyo Kaisha, LTD.), was introduced into the cells (in a concentration of 2.86 pmols/0.5 μl or 8.57 pmols/1.5 μl), incubation followed for further one day. The expression level of mouse GPR40-GFP was detected by enzyme immunoassay as shown below. After the culture supernatant was discarded and the cells were washed with HBSS (Invitrogen), the cells were immobilized on 0.01% glutaraldehyde (Wako Pure Chemical) for 5 minutes, followed by blocking with 2% BSA-containing PBS (Takara Shuzo). Anti-GFP monoclonal antibody 3E6 (Nippon Gene) diluted to 500-fold was added to the cells. After incubation at room temperature for 2 hours, the cells were washed and HRP-labeled anti-mouse IgG antibody (ICN) diluted to 500-fold was added thereto followed by incubation at room temperature for 2 hours. After washing, TMB Microwell peroxidase substrate (Funakoshi) was added to the cells. After incubation for 30 minutes, sulfuric acid was added to stop the color-forming reaction and absorbance was measured at 450 nm.

[3] = test system: p44/42 MAP kinase in MIN6 cells; assay: MAP kinase activation (western blot) in MIN6 cells; type: cell-based, mouse; conditions: PD98059 50 μM during preincubation/incubation; 5 minutes
Procedure: The medium used was 4.5 g/l of glucose-containing Dulbecco's Modified Eagle Medium (DMEM, Invitrogen, Inc.) supplemented with 15% fetal calf serum (ThermoTrace, Inc.), 5.5 μM 2-mercaptethanol (Invitrogen, Inc.), 20 mM HEPES pH 7.3, 100 U/ml penicillin and 100 μg/ml streptomycin. The mouse pancreatic β cell line MIN6 cells were plated in a 12-well plate at a density of 2×10^5/well and incubated overnight. On the following morning, the medium was exchanged and incubation was continued overnight. The medium was again exchanged on the following morning. After incubation for 3 hours, preincubation was carried out in 22 mM glucose-containing KRBH for an hour. Various fatty acids were dissolved in KRBH (22 mM glucose) at a density of 10 μM followed by incubation for 2.5 minutes (or 5 minutes). MAPK inhibitor (PD98059) was added to KRBH in a concentration of 50 μM during the preincubation/incubation. After lysis/extraction in a sample buffer (TEFCO, Inc.), the cells were separated on SDS-PAGE and analyzed by western blotting using PhosphoPlus p44/42 MAP kinase (Thr202/Tyr204) Antibody Kit (Cell Signaling Technology, Inc.). […] The activation of MAPK occurred by the fatty acids showing the agonist activity in MIN6 as well as in the GPR40-expressed CHO cells. Thus, it was strongly supported that GPR40 would take part in MIN6 stimulation of fatty acids at least in part.

m40i103: mouse GPR40-specific siRNA; sense strand SEQ ID NO: 34, antisense strand SEQ ID NO: 35 (sense CGCCAGUUGUGACAUUCUUNN; antisense NNGCGGUCAACACUGUAAGAA; chemistry not given here; one strand is listed 3' to 5')
expression of GPR40 mRNA (GPR40/GAPDH) in MIN6 [1]: decreased | expression level of GPR40-GFP (absorbance at 450 nm) [2]: reduction in the expression level

COc1cccc(-c2cc(=O)c3ccccc3o2)c1N [PD98059]
effect on fatty acid-induced activation of MAPK in MIN6 [3]: almost suppressed

m40i256: mouse GPR40-specific siRNA; sense strand SEQ ID NO: 36, antisense strand SEQ ID NO: 37 (sense CUUGUUAGCCAUCCGAGGCNN; antisense NNGAACAATCGGTAGGCTCCG; chemistry not given here; one strand is listed 3' to 5')
expression level of GPR40-GFP (absorbance at 450 nm) [2]: reduction in the expression level
